From patent US8129425B2, “Small organic molecule regulators of cell proliferation” (Curis, Inc., priority 2000, dated 2012) come the findings set out here.

The test system of the assay is hedgehog-responsive Gli-Luc reporter-construct. The assay is described as follows: Gli-Luc hedgehog pathway reporter assay in [10T1/2(s12)] cells. The assay is classed as cell-based, murine. To be noted: Table 1. Here is the method: To measure the hedgehog agonist activity of compounds, we used [10T1/2(s12)] cells containing the hedgehog-responsive Gli-Luc reporter-construct. In each MTP (MicroTiter Plate; 96-well plate), 10,000-20,000 cells were plated per well, in full media (10% FBS). After about 24-48 hr, plates were switched to low-serum media (=0.5%. FBS). Subsequently, a test compound was added at 1-5 μM in the presence or absence of octyl-hedgehog (see below). After another 24 hr, the media from the MTPs was discarded and replaced with luciferase assay-mix, containing lysis-buffer with luciferase substrate. The plates were incubated at RT for about 15-30 min and read in a luminometer.
Plates were incubated for 48 hr before switching to low-serum. Compounds were screened at 1-2 μM in the presence of Hh protein (0.01 μg/ml; EC30=about 30% of max-induced activity).
Plates were incubated for 24 hr before switching to low-serum. Compounds were screened at 5 μM without adding Hh protein.
From Screen A, we identified hits identified in FIGS. 32 and 33. The 1,4-diaminocyclohexane subunit of the compounds of FIG. 32 which include this moiety have the two amino substituents disposed in a trans-relationship, e.g., both substituents equatorial on the cyclohexane subunit. These hits were confirmed in Screen B. The data shown in FIGS. 34a and 34b essentially involved dosing the two compounds in both assays (Gli-Luc & SV-Luc).
The data from the Gli-Luc assay is converted to percent activity where full activity with Hh protein is set at 100% (FIG. 35; Table 1). […] Furthermore, the compounds show a more striking induction in the presence of hedgehog (EC50=0.2-0.3 μM, ECmax=70-90% of max induced activity with Hh protein), indicating a synergy between the compounds and Hh protein, consistent with the compounds serving as agonists for the hedgehog pathway.
A general note: Reporter assays use an easily measured gene product as a stand-in for the process of interest.

The EC50 is the concentration at which the effect is half-maximal.

Each structure is given as a SMILES string.

`COc1ccc(CN(C(=O)c2sc3ccccc3c2Cl)[C@H]2CC[C@H](N)CC2)cc1-c1ccsc1` [C′]: the EC50 was less than 10000 nM.

Take `CN[C@H]1CC[C@H](N(Cc2cccc(N3CCOCC3)c2)C(=O)c2sc3ccccc3c2Cl)CC1` [W′]: the half-maximal effective concentration (EC50) is less than 10000 nM.

For the molecule `CN[C@H]1CC[C@H](N(Cc2cccc(-c3ccc(N(C)C)nc3)c2)C(=O)c2sc3ccccc3c2Cl)CC1` [H′′], the EC50 is less than 100 nM.

As for `CNC1CCC(N(Cc2cccc(I)c2)C(=O)c2sc3ccccc3c2Cl)CC1` (stereo not shown) [W], the concentration giving a half-maximal response (EC50) is less than 10000 nM.

With `CN[C@H]1CC[C@H](N(Cc2scc(-c3cccnc3)c2C)C(=O)c2sc3ccccc3c2Cl)CC1` [A′′], the EC50 is less than 10000 nM.

In the case of `COc1ccc(CN(C(=O)c2sc3ccccc3c2Cl)C2CCC(N)CC2)cc1-c1nccs1` (stereo not shown) [Z], the EC50 is less than 10000 nM.

As to `CN[C@H]1CC[C@H](N(Cc2cc(Cl)nc(Cl)c2)C(=O)c2sc3ccccc3c2Cl)CC1` [T′′′], the EC50 is less than 1000 nM.

For `CNC1CCC(N(Cc2cccc(-c3ccccn3)c2)C(=O)c2sc3ccccc3c2Cl)CC1` (stereo not shown) [Q], the concentration giving a half-maximal response (EC50) is less than 1000 nM.

As for `CN[C@H]1CC[C@H](N(Cc2ccc(OC)c(-c3ccc(C#N)cc3)c2)C(=O)c2sc3cccc(C)c3c2Cl)CC1` [O′′′], the EC50 was less than 1000 nM.

As for `Cc1ccc(-c2cccc(CN(C(=O)c3sc4ccccc4c3Cl)C3CCC(N)CC3)c2)cn1` (stereo not shown) [T], the half-maximal effective concentration (EC50) is less than 10000 nM.

With `CN[C@H]1CC[C@H](N(Cc2ccccn2)C(=O)c2sc3c(F)ccc(F)c3c2Cl)CC1` [U′′′], the concentration for a half-maximal effect (EC50) was less than 1000 nM.

On to `CN[C@H]1CC[C@H](N(Cc2ccc(OC)c(-c3ccc(C#N)cc3)c2)C(=O)c2sc3ccccc3c2C)CC1` [K′], for which the half-maximal effective concentration (EC50) is less than 10000 nM.

On to `CN[C@H]1CC[C@H](N(Cc2ccnc(-c3ccc(N)nc3)c2)C(=O)c2sc3ccccc3c2Cl)CC1` [Q′′′], for which the 50% effective concentration (EC50) is less than 1000 nM.

As for `COc1ccc(-c2cc(CN(C(=O)c3sc4ccccc4c3Cl)C3CCC(N)CC3)ccc2OC)cc1` (stereo not shown) [K], the EC50 is less than 1000 nM.

Regarding `CN[C@H]1CC[C@H](N(Cc2cncc(-c3cccnc3)c2)C(=O)c2sc3ccccc3c2Cl)CC1` [G′′′], the EC50 was less than 5000 nM.

For `CN[C@H]1CC[C@H](N(Cc2cccc(-c3ccc[nH]3)c2)C(=O)c2sc3ccccc3c2Cl)CC1` [D′′], the EC50 was less than 10000 nM.

For `CN[C@H]1CC[C@H](N(Cc2ccnc(C(F)(F)F)c2)C(=O)c2sc3ccccc3c2Cl)CC1` [R′′′], the EC50 is less than 1000 nM.

On to `CN[C@H]1CC[C@H](N(Cc2cccc(-c3ccc(S(=O)(=O)N(C)C)s3)c2)C(=O)c2sc3ccccc3c2Cl)CC1` [M′′], for which the EC50 was less than 1000 nM.

Consider `CNC1CCC(N(Cc2cccc(-c3cnccn3)c2)C(=O)c2sc3ccccc3c2Cl)CC1` (stereo not shown) [P], for which the EC50 is less than 1000 nM.

For `COc1ccc(CN(C(=O)c2sc3ccccc3c2Cl)[C@H]2CC[C@H](N)CC2)cc1-c1ccc(F)cc1` [E′], the EC50 was less than 10000 nM.

As to `NC1CCC(N(Cc2cccc(-c3cccnc3)c2)C(=O)c2sc3ccccc3c2Cl)CC1` (stereo not shown) [Compound C], the half-maximal effective concentration (EC50) was less than 1000 nM.

Turning to `CNC1CCC(N(Cc2cccc(-c3ccncc3)c2)C(=O)c2sc3ccccc3c2Cl)CC1` (stereo not shown) [M], the EC50 was less than 1000 nM.

As to `COc1ccc(CN(C(=O)c2sc3ccccc3c2Cl)[C@H]2CC[C@H](N)CC2)cc1Br` [H′], the EC50 is more than 10000 nM.

As for `CN[C@H]1CC[C@H](N(Cc2ccc(OC)c(-c3ccc(C#N)cc3)c2)C(=O)c2sc3cccc(F)c3c2Cl)CC1` [Y′′], the EC50 is less than 50 nM.

For `CN[C@H]1CC[C@H](N(Cc2ccc(OC)c(-c3ccc(C#N)cc3)c2)C(=O)c2sc3ccc(F)c(F)c3c2Cl)CC1` [D′′′], the EC50 is less than 50 nM.

For `CN[C@H]1CC[C@H](N(Cc2ccnc(-c3ccc(C#N)cc3)c2)C(=O)c2sc3ccccc3c2Cl)CC1` [M′′′], the EC50 was less than 500 nM.

Regarding `CN[C@H]1CC[C@H](N(Cc2cc(-c3ccc(S(N)(=O)=O)s3)cs2)C(=O)c2sc3ccccc3c2Cl)CC1` [I′′], the half-maximal effective concentration (EC50) is less than 500 nM.

For `CNC1CCC(N(Cc2ccc(C)c(-c3ccc(C#N)cc3)c2)C(=O)c2sc3ccccc3c2Cl)CC1` (stereo not shown) [Compound S], the half-maximal effective concentration (EC50) was less than 1000 nM.
